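All cell lines were grown in 96-well plates and treated with compound for 48 hours. GI50: concentration for 50% inhibition of growth. The concentration for full growth arrest is given as TGI.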
What was measured:
Assay in all cases: inhibition of tumour cell growth, NCI panel, 48 h
OVCAR-8 ovarian = tested on: OVCAR-8 ovarian
HS 578T breast = tested on: HS 578T breast
SNB-19 CNS = tested on: SNB-19 CNS
U251 CNS = tested on: U251 CNS
MCF7 breast = tested on: MCF7 breast
NCI-H460 lung = tested on: NCI-H460 lung
HL-60(TB) leukemia = tested on: HL-60(TB) leukemia
OVCAR-5 ovarian = tested on: OVCAR-5 ovarian
HCC-2998 colon = tested on: HCC-2998 colon
A549 NSCLC = tested on: A549 NSCLC

SMILES	TGI (OVCAR-8 ovarian) [µM]	TGI (HS 578T breast) [µM]	TGI (SNB-19 CNS) [µM]	TGI (U251 CNS) [µM]	TGI (MCF7 breast) [µM]	TGI (NCI-H460 lung) [µM]	TGI (HL-60(TB) leukemia) [µM]	TGI (OVCAR-5 ovarian) [µM]	TGI (HCC-2998 colon) [µM]	TGI (A549 NSCLC) [µM]	GI50 (OVCAR-8 ovarian) [µM]	GI50 (HS 578T breast) [µM]	GI50 (SNB-19 CNS) [µM]	GI50 (U251 CNS) [µM]	GI50 (MCF7 breast) [µM]	GI50 (NCI-H460 lung) [µM]	GI50 (HL-60(TB) leukemia) [µM]	GI50 (OVCAR-5 ovarian) [µM]	GI50 (HCC-2998 colon) [µM]	GI50 (A549 NSCLC) [µM]
O=C(Nc1cccc2ccccc12)c1cc2ccccc2oc1=O	> 100	> 100	85.1	> 100	> 100	> 100	> 100	> 100	> 100	> 100										
COc1cc(C=O)cc(C=Nc2ccc(Br)cc2)c1O	> 100	5.26	> 100	> 100	> 100	37.5	56.8	> 100	38.9	> 100										
CCc1c(O)nc(Nc2nc3ccccc3[nH]2)[nH]c1=O	> 100	> 100	> 100	> 100	> 100	> 100	> 100	> 100	> 100	> 100										
CC1(C)CCC[C@@]2(C)C1CC[C@@]1(CO)O[C@H](C3=CC(=O)OC3O)C[C@H]12 (stereo not given in full)	36.2	38.4	32.3	28.5	26.7	38.8	4.31	37.5	31.3	> 86.1										
O=C(/C=C/c1ccccc1)c1cc(CN2CCOCC2)c(O)c(CN2CCOCC2)c1	> 100	> 100	> 100	16.3	32.4	19.4	27.4	36.2	33.7	33.2										
C[n+]1c2ccccc2n2c3ccccc3c(NCCCn3ccnc3)c(C#N)c21	8.43	6.78	> 31.2	> 33	> 34	3.63	20.3	18.7	3.1	32.2										
O=c1[nH]nc(Nc2ccc(Cl)cc2)c2nnn(C3CCCCC3)c12	34.3	> 100	> 100	91	> 100	> 100	> 100	> 100	> 100	> 100										
COc1cc2c(cc1O)C(Cc1ccc(OCc3ccccc3)c(OCc3ccccc3)c1)N(C(=O)NCCc1ccccc1)CC2 (stereo not given)	> 100	> 100	> 100	> 100	> 100	> 100	> 100	> 100	> 100	> 100										
COC(=O)CCC(C)[C@H]1CCC2C3CC[C@@H]4CC5(CC[C@]4(C)C3C[C@H](OC(C)=O)[C@@]21C)OOC1(CCCCC1)OO5 (stereo not given in full)	> 100	> 100	> 100	> 100	> 100	> 100	8.89	> 100	9.2	> 100										
C=CCOC(C)(C)C1=CCC(C)CC1 (stereo not given)	> 100	> 100	> 100	> 100	> 100	> 100	> 100	> 100	> 100	> 100										
COc1cc(C2c3cc4c(cc3[C@@H](Nc3ccc(F)cc3)C3COC[C@H]23)OCO4)cc(OC)c1O (stereo not given in full)	> 25	4.21	16.2	18	> 25	3.83	2.29	14.1	> 25	10.6										
N#Cc1cc(F)cc(Oc2ccc(S(=O)(=O)C(F)F)c3c2CC(F)(F)[C@H]3O)c1	> 100	> 100	> 100	> 100	> 100	> 100	87.2	> 100	> 100	> 100	33.8	28.5	37.2	29.8	25.7	42.1	27.4	51	48	27.9
Cc1nnc(SCc2nc(C#N)c(C#N)nc2CSc2nnc(C)s2)s1	> 100	> 59.4	> 100	37.5	34.3	> 59.2	7.74	34.5	30.4	> 100										
O=C(O)[C@H]1NC[C@H]2C(Br)=NO[C@@H]12	> 100	> 100	> 100	> 100	> 100	> 100	> 100	> 100	> 100	> 100										
O=S(Nc1ccccc1)c1ccc(Cl)cc1 (stereo not given)	> 100	> 100	> 100	> 100	> 100	> 100	> 100	> 100	> 100	> 100										
CC1(C)N=C(/C(Cl)=[N+](/[O-])C(=O)c2ccc(Cl)cc2)C(C)(C)N1O	45.3	> 100	> 100	55.5	32.7	> 100	60.7	42.5	63	> 100										
